Assay results: paper PMC6941357, “An in vitro toolbox to accelerate anti-malarial drug discovery and development” (Malaria Journal, 2020)
Several values for one entry are separate records, joined by “and”; a condition that tells them apart may be missing. Equal entries are not always repeated. Where two headings read alike, the source gives them in different places. Marks after values point to notes of the source that are not given here.

Columns and labels:
10% FCS in DMEM = assay: Binding in DMEM with 10% FCS via ultracentrifugation; format: in vitro ADME, calf
Procedure: (§1) Dulbecco’s Modified Eagle’s Medium (DMEM) containing GlutaMAX-I was purchased from Invitrogen (Thermo Fisher Scientific) and stored at 4 °C. Medium was prepared by adding heat inactivated foetal calf serum (FCS, final 10% v/v), penicillin (final 100 U/mL), streptomycin (final 100 µg/mL) D-glucose (final 4.0 mg/mL) and sodium pyruvate (final 0.1 mg/mL).
(§2) An ultracentrifugation method adapted from a previous publication was initially used to assess plasma protein binding and binding in the other media. […] Additional ultracentrifuge tubes containing spiked matrix were maintained at 37 °C, 5% or 10% CO2 or normal atmosphere conditions, with aliquots being taken within 0.5 h of the start and at the end of ultracentrifugation to serve as controls for the assessment of stability and to obtain a measure of the total concentration (Ctotal). Following ultracentrifugation, the pH was checked and an aliquot of protein-free supernate was taken from each ultracentrifuge tube for determination of the unbound concentration (Cunbound).
(§3) Total matrix and protein free samples were analysed using a matrix matching approach whereby each sample was mixed in a 1:1 ratio with the opposite blank medium (i.e. blank total matrix or blank protein free buffer). For example, plasma samples were mixed with blank pH 7.4 buffer whereas plasma supernatant samples were mixed with blank plasma. Each of the sample sets were then assayed against a common calibration curve prepared in a 1:1 mixture of total matrix and protein free pH 7.4 buffer. […] The standard deviation for fu was calculated using the propagation of errors approach as described previously. The potential for compound degradation was assessed by comparing the average value for Ctotal at the start and end of the experiment.

[1] = Blood to plasma partitioning; format: in vitro ADME, human; settings: 37 °C; for B/P (whole blood to plasma partitioning ratio): human whole blood; for blood plasma ratio at 1000 ng/mL: human, whole blood, pH 7.4, human whole blood, read-out: B/P (whole blood to plasma partitioning ratio)
Procedure: Human whole blood was collected and supplied by the Volunteer Blood Donor Registry (Clinical Translation Centre, Walter & Eliza Hall Institute of Medical Research, Parkville, Australia) and used on the day of collection. The haematocrit (Hct) was determined by centrifugation (13,000×g for 3 min using Clemets® Microhaematocrit centrifuge and Safecap® Plain Self-sealing Mylar wrapped capillary tubes) to ensure it was between 0.40 and 0.48. An aliquot was centrifuged (Heraeus, Multifuge 3 S-R; 4500×g) for 10 min to obtain plasma required for matrix matching purposes as described below.
Two aliquots of the spiked whole blood were transferred to fresh microcentrifuge tubes and maintained at 37 °C/5% CO2 in a humidified incubator. The pH was confirmed to be 7.4 ± 0.1 at the start and end of the incubation. At each time point (30 min and 4 h), one whole blood tube was removed from the incubator and mixed by gentle inversion, after which four replicate blood samples were taken and matrix matched with an equal volume of blank plasma. The remainder of the blood sample was centrifuged (Eppendorf, Mini Spin plus; 6700×g) for 2 min for the collection of 4 replicate plasma samples which were similarly matrix matched with an equal volume of blank whole blood. The 1:1 mixtures of blood/plasma were mixed, snap frozen in dry ice and stored at − 80 °C until analysis by LC–MS (Additional file 1: Table S2) against calibration standards prepared in the same mixed matrix. Any further distribution of compound into RBCs at this stage was irrelevant as the cells were lysed during the sample preparation and the total concentration in the mixed matrix was measured for both the calibration standards and samples.
The apparent whole blood-to-plasma partitioning ratio (B/P) was calculated as the ratio of the average concentration in the blood sample to that in the plasma fraction of the same whole blood sample. A standard deviation (SD) for each B/P value was calculated using the propagation of errors approach as described previously.

human plasma [2] = assay: Plasma protein binding via ultracentrifugation (UC); format: in vitro ADME; settings: ultracentrifugation, neat plasma
How it was run: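 Pooled human plasma (3–4 donors) spiked and ultracentrifuged; protein-free supernate gave Cunbound, parallel tubes kept at 37 °C gave Ctotal and stability (start vs end). Samples matrix-matched 1:1 with opposite blank and quantified against a common calibration curve; fu SD by error propagation.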

human liver microsomes = assay: Binding to human liver microsomes via ultracentrifugation; format: in vitro ADME; settings: 0.4 mg/mL protein
How it was run: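 Unbound fraction by ultracentrifugation: Cunbound measured in protein-free supernate, Ctotal from spiked tubes held at 37 °C, sampled at start and end to check degradation. Matrix was 0.4 mg/mL human liver microsomal protein, 0.1 M phosphate pH 7.4; matrix-matched analysis against one calibration curve.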

[3] = Binding in DMEM with 10% FCS via ultracentrifugation; format: in vitro ADME, calf; settings: bovine, pH 7.4
Procedure: as §1, §2, §3

[4] = Plasma protein binding via rapid equilibrium dialysis (RED), 10% plasma; format: in vitro ADME, human; settings: human, 10% pooled plasma (diluted 1:10), pH 7.4, RED, 10% plasma corrected for dilution; for fraction unbound at 24 h: presaturation of device and 24 h dialysis; for fraction unbound at 6 h: 6 h dialysis
Procedure: (§4) Pooled human plasma (n = 3–4 donors) was obtained by centrifugation of blood (collected by the Australian Red Cross Blood Service, Melbourne, Australia or the Volunteer Blood Donor Registry, Clinical Translation Centre, Walter & Eliza Hall Institute of Medical Research, Parkville, Australia), or sourcing pooled plasma directly from commercial sources (Innovative Research Inc, MI) and stored frozen at − 80 °C.
(§5) Plasma was diluted 1:10 with pH 7.4 phosphate buffer (prepared by mixing 0.1 M sodium dihydrogen phosphate and 0.1 M disodium hydrogen phosphate (both containing 0.04 M NaCl) to pH 7.4) and spiked with compound to achieve a total measured concentration of ~ 1000–3000 ng/mL. Diluted plasma was vortex mixed briefly and aliquots (n = 3–4) were transferred to RED (Thermo Fisher Scientific, Waltham, MA) units that were placed at 37 °C under ambient atmosphere on a plate shaker. […] At the end of the dialysis period, samples were removed from both the donor and dialysate chambers of the RED units. […] Fraction unbound values were calculated for each individual RED unit and the mean and SD calculated for n = 3–4 replicates.
(§6) Briefly, the RED device was exposed for two 30 min periods and one overnight period to fresh solutions of compound prepared in pH 7.4 buffer at approximately 10% of the total dialysis concentration. Following the preincubations, solutions were removed from the RED device and discarded. […] Samples were removed and analysed as described above.
(§7) For binding assessments using 10% plasma, the unbound fraction (fu) in neat plasma was calculated using the average values for Ctotal and Cunbound and Eq.

Caco-2 cell monolayers = settings: cited from earlier work; for A–B Papp / B–A Papp: corrected for fu; for Literature ER: Caco-2, ref [33], [35] of Additional file 1
human plasma [5] = assay: Plasma protein binding via rapid equilibrium dialysis (RED), 10% plasma; format: in vitro ADME; settings: RED, 10% plasma corrected for dilution
Procedure: as §4, §5, §6, §7

[6] = human, cited from earlier work; for CL/F: apparent oral clearance; for V/F: apparent oral volume of distribution
[7] = presaturation of device and 24 h dialysis

CCc1nc(N)nc(N)c1OCCCOc1ccccc1CCC(=O)O.Cl [P218]
Fraction unbound, 10% FCS in DMEM (10% FCS in DMEM): 0.684 ± 0.017
B/P (whole blood to plasma partitioning ratio) [1]: 0.56 ± 0.03
Fraction unbound, human plasma (human plasma [2]): 0.13 ± 0.013
Fraction unbound, HLM (human liver microsomes): 0.88 ± 0.041

Clc1ccc2c(N3CCN(CCCN4CCN(c5ccnc6cc(Cl)ccc56)CC4)CC3)ccnc2c1 [Piperaquine]
fraction unbound at […], 1000 ng/mL ([3]; DMEM with 10% FCS): 0.092 ± 0.003
blood plasma ratio at 1000 ng/mL [1]: 0.57 ± 0.05
fraction unbound at 24 h [4]: 0.0003 ± 0.0001
A–B Papp (Caco-2 cell monolayers; matrix: human plasma): > 300 10^−6 cm/s
B–A Papp (Caco-2 cell monolayers; matrix: human plasma): > 300 10^−6 cm/s

COc1ncnc(NS(=O)(=O)c2ccc(N)cc2)c1OC [Sulfadoxine]
fraction unbound at […], 1000 ng/mL ([3]; DMEM with 10% FCS): 0.86 ± 0.044
fraction unbound at 6 h [4]: 0.025

C[C@H]1c2cccc(O)c2C(=O)C2=C(O)[C@]3(O)C(=O)C(C(N)=O)=C(O)[C@@H](N(C)C)[C@@H]3[C@@H](O)[C@@H]21 [Doxycyclin]
fraction unbound at […], 1000 ng/mL ([3]; DMEM with 10% FCS): 0.44 ± 0.07
fraction unbound at 6 h [4]: 0.23 ± 0.09

CS(=O)(=O)c1ccc(-c2cnc(N)c(-c3ccc(C(F)(F)F)nc3)c2)cc1 [MMV048]
fraction unbound at […], 1000 ng/mL ([3]; DMEM with 10% FCS): 0.653 ± 0.06
fraction unbound at 6 h [4]: 0.11 ± 0.007

COc1cc2[nH]c(C)c(-c3ccc(Oc4ccc(OC(F)(F)F)cc4)cc3)c(=O)c2cc1Cl [ELQ300]
Fraction unbound, 10% FCS in DMEM (10% FCS in DMEM): 0.001 ± 0.001
B/P (whole blood to plasma partitioning ratio) [1]: 0.53 ± 0.05
Fraction unbound, human plasma (human plasma [5]; 6 h dialysis): < 0.0001
Fraction unbound, human plasma (human plasma [5]; [7]): 0.00010 ± 0.000010^c
Fraction unbound, human plasma (human plasma [2]): 0.011 (0.0020)
Fraction unbound, HLM (human liver microsomes): 0.002 ± 0.00010

C[C@H]1[C@H](OC(=O)CCC(=O)O)O[C@@H]2O[C@@]3(C)CC[C@H]4[C@H](C)CC[C@@H]1[C@@]24OO3 [Artesunate]
fraction unbound at […], 1000 ng/mL ([3]; DMEM with 10% FCS): 0.72 ± 0.026
Literature ER (Caco-2 cell monolayers): 1.2

CN(C)C[c-]1cccc1CNc1ccnc2cc(Cl)ccc12.[Fe+2].c1cc[cH-]c1 (stereo not shown) [Ferroquine]
Fraction unbound, 10% FCS in DMEM (10% FCS in DMEM): 0.364 ± 0.026
B/P (whole blood to plasma partitioning ratio) [1]: 1.6 ± 0.15
Fraction unbound, human plasma (human plasma [5]; [7]): 0.041 ± 0.0010^c
Fraction unbound, human plasma (human plasma [2]): 0.070 (0.0080)
Fraction unbound, HLM (human liver microsomes): 0.27 ± 0.032

CC(C)(C)NCc1cc(C(C)(C)C)cc(-c2cnc(C(F)(F)F)c(F)c2)c1O [JPC3210]
Fraction unbound, 10% FCS in DMEM (10% FCS in DMEM): 0.227 ± 0.012
B/P (whole blood to plasma partitioning ratio) [1]: 0.54 ± 0.04
Fraction unbound, human plasma (human plasma [5]; 6 h dialysis): 0.0011 (0.0002)
Fraction unbound, human plasma (human plasma [2]): 0.071
Fraction unbound, HLM (human liver microsomes): 0.029 ± 0.0030

CC(C)(C)NCc1cc(Nc2ccnc3cc(Cl)ccc23)c2c(c1O)CCCC2 [Naphthoquine]
B/P (whole blood to plasma partitioning ratio) [1]: 1.14 ± 0.10
Fraction unbound, human plasma (human plasma [5]; 6 h dialysis): 0.019 (0.0010)
Fraction unbound, human plasma (human plasma [5]; [7]): 0.018 ± 0.0010^c
Fraction unbound, human plasma (human plasma [2]): 0.030 (0.0020)
Fraction unbound, HLM (human liver microsomes): 0.21 ± 0.015
Literature ER (Caco-2 cell monolayers): 0.8
Literature Papp (Caco-2 cell monolayers; Caco-2 A-B, ref [33]–[35] of Additional file 1): 27.3 ± 0.6 10-6 cm/sec
A–B Papp (Caco-2 cell monolayers; matrix: human plasma): 230 ± 32 10^−6 cm/s
B–A Papp (Caco-2 cell monolayers; matrix: human plasma): 180 ± 10 10^−6 cm/s
efflux ratio (Caco-2 cell monolayers; matrix: human plasma): 0.8 and 0.78

COc1cc(NC(C)CCCN)c2ncccc2c1 (stereo not shown) [Primaquine]
fraction unbound at […], 1000 ng/mL [3]: 0.78 ± 0.025
half-life ([6]; in vivo, ref Table 10): ~ 7 h
CL/F [6]: 28 L/h
V/F [6]: 277 L
Food effect [6]: no
half-life [6]: 7 h

COc1cc(C)c2c(Oc3cccc(C(F)(F)F)c3)c(OC)cc(NC(C)CCCN)c2n1 (stereo not shown) [Tafenoquine]
fraction unbound at […], 1000 ng/mL ([3]; DMEM with 10% FCS): 0.038 ± 0.001
blood plasma ratio at 1000 ng/mL [1]: 1.3 ± 0.04
CL/F [6]: 3.0 L/h
V/F [6]: 1600 L
Food effect [6]: yes
half-life [6]: 360 h
half-life ([6]; ref Table 10): ~ 15 days
fraction unbound at 6 h [4]: < 0.0007
fraction unbound at 24 h [4]: 0.0007 ± 0.00017

CCc1nc(N)nc(N)c1-c1ccc(Cl)cc1 [Pyrimethamine]
fraction unbound at […], 1000 ng/mL ([3]; DMEM with 10% FCS): 0.48 ± 0.034
fraction unbound at 6 h [4]: 0.095 ± 0.001

CC1(C)c2nc(-c3ccc(F)cc3)c(Nc3ccc(F)cc3)n2CCN1C(=O)CN [KAF156]
fraction unbound at […], 1000 ng/mL ([3]; DMEM with 10% FCS): 0.477 ± 0.032

CC1(C)N=C(N)N=C(N)N1c1ccc(Cl)cc1 [Cycloguanil]
fraction unbound at […], 1000 ng/mL ([3]; DMEM with 10% FCS): 0.94 ± 0.064

CCN(CC)CCCNc1ccnc2cc(Cl)ccc12.Cl.Cl [AQ-13]
B/P (whole blood to plasma partitioning ratio) [1]: 3.15 ± 0.20
Fraction unbound, human plasma (human plasma [2]): 0.43 ± 0.022
Fraction unbound, HLM (human liver microsomes): 0.66 ± 0.048

COc1cc(N[C@H](C)CCCN)c2nccc(C)c2c1Oc1ccc(Cl)c(Cl)c1 [NPC1161B]
Fraction unbound, 10% FCS in DMEM (10% FCS in DMEM): 0.043 ± 0.004
B/P (whole blood to plasma partitioning ratio) [1]: 1.09 ± 0.07
Fraction unbound, human plasma (human plasma [5]; 6 h dialysis): < 0.0003
Fraction unbound, human plasma (human plasma [5]; [7]): 0.00074 ± 0.00016^c
Fraction unbound, human plasma (human plasma [2]): 0.046 (0.0090)
